Data set [1] can be described thus: Particle size distribution after wet milling with high speed homogenizer (Silverson L5M-A). As to conditions: water. Type of data set: physicochemical. Here is the method: As used herein, the term “particle size distribution” is expressed in terms of D90, D50 and D10, which corresponds to the diameter of 90 percent by volume of the particles, 50 percent by volume of the particles and 10 percent by volume of the particles are present, respectively.
The particle size distribution of pirfenidone is measured utilizing: Instrument model: Malvern; Mastersizer 3000; particle refraction index of sample: 1.700; Absorption: 0.01 and Analysis model: general purpose, normal sensitivity, non-spherical particles.
Water (300 mL) and Pirfenidone (100 gr; Particle size distribution: D10: 1330 μm; D50: 1950 μm and D90: 2840 μm) were charged into reaction vessel at 25° C. to 35° C. and was placed High speed stirrer/Homogenizer into the reaction mass till required particle size was obtained at 25° C. to 35° C. Particle size distribution of the sample with different time interval was monitored by collecting the sample from reaction mass. After achieving the required particle size, stirred the reaction mixture for 30-60 min at 25° C. to 35° C. Further, the reaction mixture temperature was allowed to cool to 0° C. to 5° C. and stirred for 2-3 hrs at same temperature. Filter the solid and washed with the wet cake with chilled water (100 mL), dried the solid in an oven under vacuum at 60° C. for 4-6 hours.
The following examples were performed using the above described process with different rpm and time; the obtained results are tabulated below: […]

For data set [2] the following is noted: milled through a loop mill, US 8,519,140; cited from earlier work.
Where [3] appears, read: 2000 RPM, stirring time 120 min.
[4] abbreviates: 2000 RPM, stirring time 240 min.

SMILES strings stand for the structures.

Turning to `Cc1ccc(=O)n(-c2ccccc2)c1` [Pirfenidone, 5-methyl-1-phenyl-2-1(H)-pyridone], the “PSD D10” value in data set [1] (2000 RPM, stirring time 30 min) is on record as 24 μm; in data set [1] (2000 RPM, stirring time 60 min), 24 μm; in data set [1] (setting [3]) it was 21 μm; in data set [1] (setting [4]), 21 μm; in data set [1] (5000 RPM, stirring time 60 min) it was 17 μm; in data set [1] (7000 RPM, stirring time 60 min), 13 μm. Also, the “PSD D50” value in data set [1] (2000 RPM, stirring time 30 min) is reported as 82 μm; in data set [1] (2000 RPM, stirring time 60 min) it was 88 μm; in data set [1] (setting [3]) it was 75 μm; in data set [1] (setting [4]), 71 μm; in data set [1] (5000 RPM, stirring time 60 min), 48 μm; in data set [1] (7000 RPM, stirring time 60 min), 42 μm. The “PSD D90” value in data set [1] (2000 RPM, stirring time 30 min) is 230 μm; in data set [1] (2000 RPM, stirring time 60 min) it was 200 μm; in data set [1] (setting [3]), 165 μm; in data set [1] (setting [4]), 154 μm; in data set [1] (5000 RPM, stirring time 60 min), 108 μm; in data set [1] (7000 RPM, stirring time 60 min), 91 μm. The particle size entry in data set [2] was “less than 150 μm”.

Source of the values: US11066368B2, “Process for the preparation and particle size reduction of pirfenidone” (Laurus Labs Limited, priority 2016, dated 2021).
